Data published in patent US8188085B2, “Antifungal agents” (Merck Sharp & Dohme Corp., priority 2008, dated 2012).

target: glucan synthase (GS) prepared from Candida albicans MY1055 (Candida albicans, UniProt O13428); assay: Glucan synthase inhibition (polymerization assay, 96-well); type: biochemical; conditions: GS from C. albicans MY1055; 60 min incubation at 22° C.; read-out: Candida Albicans GS IC50 (converted)
Experimental: The in vitro evaluation of glucan synthase inhibitory activity of compounds was measured in a polymerization assay in 96-well format. Each well contained 100 μL of ^3H-UDPG at 0.5 mM (6000 to 8000 dpm/nmol), 50 mM HEPES pH 7.5 (Sigma), 10% w/v glycerol (Sigma), 1.5 mg/mL bovine serum albumin (Sigma A 9647. Lot 44H0190), 25 mM KF (Fisher), 1 mM EDTA (Gibco ULTRAPURE), 25 μM GTP-γ-S, enzyme sufficient to give 3 to 6 nmoles incorporation during the 60 min incubation at 22° C., and test compound added from wells in 3-fold serial dilutions in 100% DMSO (1 μL/well). The reaction was stopped by the addition of 100 μL of 20% trichloroacetic acid. Plates were chilled for a minimum of 10 min, and precipitated glucan collected by filtration on GF/C plates (Packard UNIFILTER®-96), washed with 5 cycles of water (about 1 mL/well each cycle) using a Packard FILTERMATE HARVESTER. 40 μL/well scintillation fluid (Packard ULTIMA GOLD TM-XR) was added and the sealed plates counted in a WALLAC BETA counter in top-counting mode at an efficiency of approximately 40%.
Stock solutions were stored at 10 mg/mL in DMSO at −20° C. For each new enzyme preparation, the initial titration performed started at 1 mg/mL, which was prepared by making a 10-fold dilution in DMSO (5 μL to 50 μL). 40 μL of this stock was placed in column 12 of a round-bottomed 96-well microtiter plate. 40 μL DMSO was added to columns 1 to 11 in the same row and ten 3-fold serial dilutions performed, by transferring 20 μL from column 12 to column 11 etc., with 4 mixings before each transfer. No test compound was transferred to from column 2 to column 1. Duplicate aliquots of 1 μL of all 12 dilutions were then transferred to the side walls of a 96-well Bioblock 1.1 mL plate (Fisher brand) to create two rows.
Graphs of the primary data were created in PRISM software (the average of two determinations) using PRISM's curve fitting program (sigmoidal dose response non-linear regression). The amount of compound required to inhibit glucan synthase activity by 50% in this assay (IC50−ng/mL) was calculated.
Routine analysis was performed with glucan synthase (GS) prepared from Candida albicans MY1055 by the following procedure: MY1055 was grown in 10 liters YPD medium (10 g yeast extract, 20 g tryptone, 20 g glucose per liter) with vigorous shaking at 30° C., to early stationary phase. Cells were harvested by centrifugation, the pellet was washed and frozen at −70° C. until breakage. Thawed pellets were shaken with an equal volume of breakage buffer (50 mM HEPES pH 7.4, 10% glycerol, 1 mM EDTA, 1 mM PMSF, 1 mM DTT) and 4 times their weight of 0.5 mm acid washed glass beads for 2 hours at 4° C. Extent of breakage was assessed visually at 40× magnification. After low speed centrifugation to remove cell debris, the supernatant was centrifuged at 100,000×g for 60 min. to separate membranes plus ribosomes from cytoplasmic components. Membranes were further washed two additional times with breakage buffer using the same centrifugation conditions and finally suspended in breakage buffer at 25 to 30 mg/mL protein (Biorad) for storage at −70° C. Extraction of GS activity from membranes was performed at a protein concentration of 5 mg/mL in extraction buffer (50 mM NaPO4 pH 7.5, 0.1 M KCl, 0.1M Na citrate, 20% glycerol, 5 μM GTP-γ-S, 1 mM DTT, 1 mM PMSF, 3 μg/mL pepstatin) plus 0.25% W1 by gentle mixing at 4° C. for 60 min, followed by centrifugation at 100,000×g for 60 min. After centrifugation, clear supernatant was removed from a pellet consisting of a hard layer usually with small amounts of gelatinous unextracted membranes above it.
Trapping was initiated immediately by 5-fold dilution in trapping buffer (50 mM HEPES pH 7.5, 10 mM KF, 1 mM EDTA, 2 mg/mL BSA) plus 2.5 mM UDPG and 10 μM GTP-γ-S. After incubation at 25° C. for 60 to 90 minutes, glucan was harvested by low speed centrifugation (3,000×g, 10 min). […]

Chain of glucan synthase (GS) prepared from Candida albicans MY1055 (O13428 1-1897): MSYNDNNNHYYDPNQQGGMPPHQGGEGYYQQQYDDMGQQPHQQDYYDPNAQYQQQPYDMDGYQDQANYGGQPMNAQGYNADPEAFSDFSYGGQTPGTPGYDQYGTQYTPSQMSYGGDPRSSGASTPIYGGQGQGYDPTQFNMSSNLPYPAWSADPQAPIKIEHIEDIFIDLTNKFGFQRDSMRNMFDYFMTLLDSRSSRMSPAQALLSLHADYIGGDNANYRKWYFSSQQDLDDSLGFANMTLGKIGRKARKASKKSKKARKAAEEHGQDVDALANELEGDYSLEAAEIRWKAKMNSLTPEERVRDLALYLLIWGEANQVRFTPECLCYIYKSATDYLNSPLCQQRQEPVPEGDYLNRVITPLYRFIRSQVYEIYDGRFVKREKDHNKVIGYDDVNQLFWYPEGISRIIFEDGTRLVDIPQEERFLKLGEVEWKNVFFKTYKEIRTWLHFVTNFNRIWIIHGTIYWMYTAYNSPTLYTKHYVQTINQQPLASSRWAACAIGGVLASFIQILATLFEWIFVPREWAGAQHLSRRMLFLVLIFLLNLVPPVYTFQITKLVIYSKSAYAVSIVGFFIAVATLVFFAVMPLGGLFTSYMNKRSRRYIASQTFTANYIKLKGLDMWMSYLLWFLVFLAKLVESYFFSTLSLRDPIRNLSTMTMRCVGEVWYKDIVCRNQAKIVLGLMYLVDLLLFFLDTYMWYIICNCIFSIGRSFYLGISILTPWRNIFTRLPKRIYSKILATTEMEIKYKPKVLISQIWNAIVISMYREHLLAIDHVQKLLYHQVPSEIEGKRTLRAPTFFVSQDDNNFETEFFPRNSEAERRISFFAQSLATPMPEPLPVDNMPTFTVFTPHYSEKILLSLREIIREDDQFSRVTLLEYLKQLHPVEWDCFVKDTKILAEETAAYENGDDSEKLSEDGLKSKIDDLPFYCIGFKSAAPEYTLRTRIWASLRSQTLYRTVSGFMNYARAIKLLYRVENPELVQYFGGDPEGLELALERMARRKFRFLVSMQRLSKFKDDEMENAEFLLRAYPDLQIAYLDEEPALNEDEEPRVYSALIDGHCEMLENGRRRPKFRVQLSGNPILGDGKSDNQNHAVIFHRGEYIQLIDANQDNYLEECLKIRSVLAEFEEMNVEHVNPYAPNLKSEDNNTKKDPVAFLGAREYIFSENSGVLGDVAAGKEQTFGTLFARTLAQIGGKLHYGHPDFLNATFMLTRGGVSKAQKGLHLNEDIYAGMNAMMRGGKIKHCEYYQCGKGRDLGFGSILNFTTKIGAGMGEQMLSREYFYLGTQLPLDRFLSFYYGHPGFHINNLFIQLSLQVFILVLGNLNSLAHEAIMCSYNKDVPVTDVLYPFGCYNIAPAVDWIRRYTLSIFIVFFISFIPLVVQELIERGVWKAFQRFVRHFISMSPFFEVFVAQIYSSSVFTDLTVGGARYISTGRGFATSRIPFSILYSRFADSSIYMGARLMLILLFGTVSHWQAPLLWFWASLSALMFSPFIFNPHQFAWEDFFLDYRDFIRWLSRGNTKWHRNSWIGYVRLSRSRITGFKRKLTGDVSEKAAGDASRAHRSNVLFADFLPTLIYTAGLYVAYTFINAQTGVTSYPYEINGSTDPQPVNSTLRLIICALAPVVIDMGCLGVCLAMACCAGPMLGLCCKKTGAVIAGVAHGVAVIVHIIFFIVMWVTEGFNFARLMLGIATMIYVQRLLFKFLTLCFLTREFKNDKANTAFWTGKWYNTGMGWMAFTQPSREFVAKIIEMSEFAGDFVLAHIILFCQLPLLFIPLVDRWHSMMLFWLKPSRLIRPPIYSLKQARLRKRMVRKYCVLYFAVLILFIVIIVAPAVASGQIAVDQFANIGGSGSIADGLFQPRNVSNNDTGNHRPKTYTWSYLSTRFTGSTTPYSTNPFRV

SMILES | IC50 [nM]
CC(C)[C@@H](C)[C@@]1(C)CC[C@]2(C)[C@H]3CC[C@@H]4[C@@]5(COC[C@@]4(C)[C@@H](OC[C@](C)(N)C(C)(C)C)[C@H](n4ncnc4Br)C5)C3=CC[C@@]2(C)[C@@H]1C(=O)O [Example 11, (1S,4aR,6aS,7R,8R,10aR,10bR,12aR,14R,15R)-15-[[(2R)-2-amino-2,3,3-trimethylbutyl]oxy]-14-(5-bromo-1H-1,2,4-triazol-1-yl)-8-[(1R)-1,2-dimethylpropyl]-1,6,6a,7,8,9,10,10a,10b,11,12,12a-dodecahydro-1,6a,8,10a-tetramethyl-4H-1,4a-propano-2H-phenanthro[1,2-c]pyran-7-carboxylic acid] | 4.1
CNC1(CO[C@H]2[C@H](n3ncnc3Cl)C[C@@]34COC[C@]2(C)[C@@H]3CC[C@H]2C4=CC[C@@]3(C)[C@H](C(=O)O)[C@@](C)([C@H](C)C(C)C)CC[C@]23C)CCOCC1 [Example 14, (1S,4aR,6aS,7R,8R,10aR,10bR,12aR,14R,15R)-14-(5-chloro-1H-1,2,4-triazol-1-yl)-8-[(1R)-1,2-dimethylpropyl]-15-[[tetrahydro-4-(methylamino)-2H-pyran-4-yl]methoxy]-1,6,6a,7,8,9,10,10a,10b,11,12,12a-dodecahydro-1,6a,8,10a-tetramethyl-4H-1,4a-propano-2H-phenanthro[1,2-c]pyran-7-carboxylic acid] | 7.13
CNC1(CO[C@H]2[C@H](n3cncn3)C[C@@]34COC[C@]2(C)[C@@H]3CC[C@H]2C4=CC[C@@]3(C)[C@H](C(=O)O)[C@@](C)([C@H](C)C(C)C)CC[C@]23C)CCCCC1 [Example 16, (1S,4aR,6aS,7R,8R,10aR,10bR,12aR,14R,15R)-8-[(1R)-1,2-dimethylpropyl]-15-[[1-(methylamino)cyclohexyl]methoxy]-14-(1H-1,2,4-triazol-1-yl)-1,6,6a,7,8,9,10,10a,10b,11,12,12a-dodecahydro-1,6a,8,10a-tetramethyl-4H-1,4a-propano-2H-phenanthro[1,2-c]pyran-7-carboxylic acid] | 33.1
CC(C)[C@@H](C)[C@@]1(C)CC[C@]2(C)[C@H]3CC[C@@H]4[C@@]5(COC[C@@]4(C)[C@@H](OC[C@@](C)(C(C)C)N(C)C)[C@H](n4cncn4)C5)C3=CC[C@@]2(C)[C@@H]1C(=O)O [Example 18, (1S,4aR,6aS,7R,8R,10aR,10bR,12aR,14R,15R)-15-[[(2R)-2-(dimethylamino)-2,3-dimethylbutyl]oxy]-8-[(1R)-1,2-dimethylpropyl]-14-(1H-1,2,4-triazol-1-yl)-1,6,6a,7,8,9,10,10a,10b,11,12,12a-dodecahydro-1,6a,8,10a-tetramethyl-4H-1,4a-propano-2H-phenanthro[1,2-c]pyran-7-carboxylic acid] | 12
CC(C)[C@@H](C)[C@@]1(C)CC[C@]2(C)[C@H]3CC[C@@H]4[C@@]5(COC[C@@]4(C)[C@@H](OC[C@H](N)C(C)(C)C)[C@H](n4cnc(N)n4)C5)C3=CC[C@@]2(C)[C@@H]1C(=O)O [Example 24, (1S,4aR,6aS,7R,8R,10aR,10bR,12aR,14R,15R)-15-[[(2R)-2-amino-3,3-dimethylbutyl]oxy]-14-(3-amino-1H-1,2,4-triazol-1-yl)-8-[(1R)-1,2-dimethylpropyl]-1,6,6a,7,8,9,10,10a,10b,11,12,12a-dodecahydro-1,6a,8,10a-tetramethyl-4H-1,4a-propano-2H-phenanthro[1,2-c]pyran-7-carboxylic acid] | 16.8
CC(C)[C@@H](C)[C@@]1(C)CC[C@]2(C)[C@H]3CC[C@@H]4[C@@]5(COC[C@@]4(C)[C@@H](OC[C@](C)(C(C)C)N(C)C)[C@H](n4cnc(N)n4)C5)C3=CC[C@@]2(C)[C@@H]1C(=O)O [Example 27, (1S,4aR,6aS,7R,8R,10aR,10bR,12aR,14R,15R)-14-(3-amino-1H-1,2,4-triazol-1-yl)-15-[[(2S)-2-(dimethylamino)-2,3-dimethylbutyl]oxy]-8-[(1R)-1,2-dimethylpropyl]-1,6,6a,7,8,9,10,10a,10b,11,12,12a-dodecahydro-1,6a,8,10a-tetramethyl-4H-1,4a-propano-2H-phenanthro[1,2-c]pyran-7-carboxylic acid] | 16.1

More lines, now with the values ahead:

IC50 [nM] | SMILES
15.3 | CC(C)[C@@H](C)[C@@]1(C)CC[C@]2(C)[C@H]3CC[C@@H]4[C@@]5(COC[C@@]4(C)[C@@H](OC[C@](C)(N)C(C)C)[C@H](n4ncnc4N)C5)C3=CC[C@@]2(C)[C@@H]1C(=O)O [Example 31, (1S,4aR,6aS,7R,8R,10aR,10bR,12aR,14R,15R)-15-[[(2R)-2-amino-2,3-dimethylbutyl]oxy]-14-(5-amino-1H-1,2,4-triazol-1-yl)-8-[(1R)-1,2-dimethylpropyl]-1,6,6a,7,8,9,10,10a,10b,11,12,12a-dodecahydro-1,6a,8,10a-tetramethyl-4H-1,4a-propano-2H-phenanthro[1,2-c]pyran-7-carboxylic acid]
46.6 | CC(C)[C@@H](C)[C@@]1(C)CC[C@]2(C)[C@H]3CC[C@@H]4[C@@]5(COC[C@@]4(C)[C@@H](OC[C@](C)(N)C(C)C)[C@H](n4nc(Cl)nc4Cl)C5)C3=CC[C@@]2(C)[C@@H]1C(=O)O [Example 34, (1S,4aR,6aS,7R,8R,10aR,10bR,12aR,14R,15R)-15-[[(2R)-2-amino-2,3-dimethylbutyl]oxy]-14-(3,5-dichloro-1H-1,2,4-triazol-1-yl)-8-[(1R)-1,2-dimethylpropyl]-1,6,6a,7,8,9,10,10a,10b,11,12,12a-dodecahydro-1,6a,8,10a-tetramethyl-4H-1,4a-propano-2H-phenanthro[1,2-c]pyran-7-carboxylic acid]
13.7 | CC(C)[C@@H](C)[C@@]1(C)CC[C@]2(C)[C@H]3CC[C@@H]4[C@@]5(COC[C@@]4(C)[C@@H](OC[C@](C)(N)C(C)C)[C@H](n4nc(N)nc4-c4ccccc4)C5)C3=CC[C@@]2(C)[C@@H]1C(=O)O [Example 36, (1S,4aR,6aS,7R,8R,10aR,10bR,12aR,14R,15R)-15-[[(2R)-2-amino-2,3-dimethylbutyl]oxy]-14-(3-amino-5-phenyl-1H-1,2,4-triazol-1-yl)-8-[(1R)-1,2-dimethylpropyl]-1,6,6a,7,8,9,10,10a,10b,11,12,12a-dodecahydro-1,6a,8,10a-tetramethyl-4H-1,4a-propano-2H-phenanthro[1,2-c]pyran-7-carboxylic acid]
17.6 | CN[C@@](C)(CO[C@H]1[C@H](n2ncnc2C(=O)NC(C)C)C[C@@]23COC[C@]1(C)[C@@H]2CC[C@H]1C3=CC[C@@]2(C)[C@H](C(=O)O)[C@@](C)([C@H](C)C(C)C)CC[C@]12C)C(C)C [Example 38, (1S,4aR,6aS,7R,8R,10aR,10bR,12aR,14R,15R)-15-[[(2R)-2,3-dimethyl-2-(methylamino)butyl]oxy]-8-[(1R)-1,2-dimethylpropyl]-14-[5-[[(1-methylethyl)amino]carbonyl]-1H-1,2,4-triazol-1-yl]-1,6,6a,7,8,9,10,10a,10b,11,12,12a-dodecahydro-1,6a,8,10a-tetramethyl-4H-1,4a-propano-2H-phenanthro[1,2-c]pyran-7-carboxylic acid]
